“And” between values parts separate entries of the source, which are not always exact repeats. Identical values can stand only once.
Organism: Rattus norvegicus
Assay: DrugMatrix - Regimen: Daily Repeat
Assay type: toxicity, organism-based, Sprague-Dawley
Parameters: regimen Daily Repeat, gender Male, age 6-8 weeks
Conditions: in vivo, ip, route intraperitoneal, vehicle 100 % SALINE; for ABSOLUTE BASOPHIL / ABSOLUTE EOSINOPHIL / ABSOLUTE LYMPHOCYTE / ABSOLUTE MONOCYTE / BASOPHIL / EOSINOPHIL / ERYTHROCYTE COUNT / HEMATOCRIT / HEMOGLOBIN / LEUKOCYTE COUNT / LYMPHOCYTE / MEAN CORPUSCULAR HEMOGLOBIN / MEAN CORPUSCULAR HEMOGLOBIN CONCENTRATION / MEAN CORPUSCULAR VOLUME / MONOCYTE / NEUTROPHIL / PLATELET COUNT: tissue Blood
[1] = 0 mg/kg, […], tissue Plasma, dose level Control, time 28 day
[2] = 0.5 mg/kg, 120 h, dose level High, time 5 day
[3] = 0.5 mg/kg, 120 h, tissue Plasma, dose level High, time 5 day
[4] = 0.5 mg/kg, […], dose level High, time 14 day
[5] = 0.5 mg/kg, […], dose level High, time 28 day
[6] = 0.5 mg/kg, […], tissue Plasma, dose level High, time 14 day

Question: Which results are given for CISPLATIN?
Answer: CHOLESTEROL [1]: 44.9 mg/dL; CREATININE [1]: 0.6 mg/dL; GLUCOSE [1]: 147.2 mg/dL; LACTATE DEHYDROGENASE [1]: 123.1 u/L; LIPASE [1]: 9.6 u/L; PHOSPHORUS [1]: 10.01 mg/dL; POTASSIUM [1]: 6.57 MEQ/L; SODIUM [1]: 149.5 MEQ/L; TOTAL BILIRUBIN [1]: 0.21 mg/dL; URIC ACID [1]: 1.26 mg/dL; ABSOLUTE BASOPHIL [2]: 26 cells/µL; ABSOLUTE EOSINOPHIL [2]: 92 cells/µL; ABSOLUTE LYMPHOCYTE [2]: 5270 cells/µL; ABSOLUTE MONOCYTE [2]: 150 cells/µL; BASOPHIL [2]: 0.36% and 0.28%; EOSINOPHIL [2]: 1.46% and 0.85%; ERYTHROCYTE COUNT [2]: 7.52 x10E6/uL and 7.82 x10E6/uL; HEMATOCRIT [2]: 46.92% and 52.02%; HEMOGLOBIN [2]: 16.7 G/DL; LEUKOCYTE COUNT [2]: 6.24 x10E3/uL and 6.92 x10E3/uL; LYMPHOCYTE [2]: 84.62% and 88.4%; MEAN CORPUSCULAR HEMOGLOBIN [2]: 20.1 pg and 21.33 pg; MEAN CORPUSCULAR HEMOGLOBIN CONCENTRATION [2]: 32.2 G/DL and 32.05 G/DL; MEAN CORPUSCULAR VOLUME [2]: 66.5 fL; MONOCYTE [2]: 2.36% and 1.6%; NEUTROPHIL [2]: 10.88% and 7.72%; PLATELET COUNT [2]: 1593.2 x10E3/uL and 1552.25 x10E3/uL; ALANINE AMINOTRANSFERASE [3]: 25 u/L and 19.25 u/L; ALBUMIN [3]: 3.66 G/DL and 4.4 G/DL; ALKALINE PHOSPHATASE [3]: 215.2 u/L and 294.25 u/L; ASPARTATE AMINOTRANSFERASE [3]: 75.2 u/L and 87.5 u/L; BLOOD UREA NITROGEN [3]: 13.8 mg/dL and 15 mg/dL; CARBON DIOXIDE [3]: 25.25 mmol/L; CHLORIDE [3]: 106.6 MEQ/L and 107.25 MEQ/L; CHOLESTEROL [3]: 54.4 mg/dL and 68 mg/dL; CREATININE [3]: 0.54 mg/dL and 0.5 mg/dL; GLUCOSE [3]: 136.8 mg/dL and 138.75 mg/dL; LIPASE [3]: 26.8 u/L and 10 u/L; POTASSIUM [3]: 5.54 MEQ/L and 5.67 MEQ/L; SODIUM [3]: 146.2 MEQ/L and 152.25 MEQ/L; TOTAL BILIRUBIN [3]: 0.18 mg/dL and 0.43 mg/dL; URIC ACID [3]: 1.34 mg/dL and 2.38 mg/dL; ABSOLUTE BASOPHIL [4]: 36 cells/µL; ABSOLUTE EOSINOPHIL [4]: 56 cells/µL; ABSOLUTE LYMPHOCYTE [4]: 7470 cells/µL; ABSOLUTE MONOCYTE [4]: 180 cells/µL; MEAN CORPUSCULAR HEMOGLOBIN [4]: 19.97 pg; ABSOLUTE BASOPHIL [5]: 87.8 cells/µL; ABSOLUTE EOSINOPHIL [5]: 85.6 cells/µL; ABSOLUTE LYMPHOCYTE [5]: 8670 cells/µL; ABSOLUTE MONOCYTE [5]: 180 cells/µL; BASOPHIL [5]: 0.8%; EOSINOPHIL [5]: 0.83%; ERYTHROCYTE COUNT [5]: 9.05 x10E6/uL; HEMATOCRIT [5]: 52.96%; HEMOGLOBIN [5]: 17.03 G/DL; LEUKOCYTE COUNT [5]: 10.42 x10E3/uL; LYMPHOCYTE [5]: 83.03%; MEAN CORPUSCULAR HEMOGLOBIN [5]: 18.84 pg; MEAN CORPUSCULAR HEMOGLOBIN CONCENTRATION [5]: 32.23 G/DL; MEAN CORPUSCULAR VOLUME [5]: 58.53 fL; MONOCYTE [5]: 1.62%; NEUTROPHIL [5]: 13.3%; PLATELET COUNT [5]: 1272.33 x10E3/uL; ALBUMIN [6]: 3.38 G/DL; CARBON DIOXIDE [6]: 22.25 mmol/L; CHLORIDE [6]: 111.6 MEQ/L; ALANINE AMINOTRANSFERASE (0.5 mg/kg, […], tissue Plasma, dose level High, time 28 day): 30.78 u/L
